Read-outs that look alike come from different tables or passages of the source.
Experiments:
[1] = biological target: T1, A2A receptor (Homo sapiens, UniProt P29274); test: Inhibition of cAMP production in HEK cells (LANCE Ultra cAMP, TR-FRET); type: cell-based; conditions: HEK-293 cells with stable transfection of A2A receptor
T1 construct: host or cells: HEK-293
Protocol: When the A2A receptor is activated, is induces the production of cAMP. The present assay thus aims at showing that cAMP production is inhibited in HEK cells in response to their exposure to the compounds of the invention. HEK-293 cells with a stable transfection of A2A receptor were bought from PerkinElmer® (#ES-011-C). Cells were cultured in EMEM medium (Lonza, #BE12-611F) supplemented with 10% FBS (Lonza, #DE14-801F) and 200 μg/mL of G418 (Tocris, #4131) at 37° C. and 5% CO2. Fresh media without the selection marker was added on the day immediately before the experiment to stop selection pressure. cAMP inhibition and antagonist IC50 determination were accessed using the LANCE® Ultra cAMP Kit from PerkinElmer® (#TRF0262) on white half area 96 well plates (PerkinElmer®, #6005560). The assays were conducted in two different stimulation buffers: • a) normal with 1×HBSS (Gibco®, #141750-95), 5 mM HEPES (Lonza, #BE17-737E), 0.1% BSA and 25 μM Rolipram and • b) HSA with 1×HBSS (Gibco®, #141750-95), 5 mM HEPES (Lonza, #BE17-737E), 2% Human Serum Albumin (Sigma-Aldrich®—A1653), 30 μM of EHNA (Tocris—#1261) and 100 μM Rolipram. Stimulation buffer b) mimics the human situation by increasing the amount of albumin present in the assay. Compounds of the present invention were diluted 100× in either of the buffers depending on the assay performed. A total of 1000 cells per well were pre-incubated for 10 minutes with the compounds of the present invention before adding the corresponded EC80 of A2A agonist (3 nM of NECA in normal buffer) or 5 μM of Adenosine (in HAS buffer) for a total reaction time of 30 minutes. The total volume of the reaction was 20 μl (10 μl of cells, 5 μl of antagonist and 5 μl of agonist). The reaction was finalized by adding 10 μl of 4×EU-cAMP tracer working solution and 10 μl of 4× ULight-anti-cAMP working solution. The TR-FRET signal was measured after 1 hour using a Spectramax Paradigm (Molecular Devices).

[2] = Permeability and efflux in Caco-2 cells; type: in vitro ADME; conditions: human, Caco-2 monolayer, bidirectional transport, pH 7.4
Protocol: The transport buffer (TB, pH 7.4) used in the study is Hank's Buffered Saline Solution (HBSS, Gibco, Cat #14025-076) with 10 mM HEPES at pH 7.4. Fetal bovine serum (FBS) (Corning, Cat #Corning-35-076-CV, or other vendors), Minimum Essential Media (MEM) (Gibco, Cat #41500-034) as well as its supplements are purchased from Invitrogen (Carlsbad, Calif., USA). Caco-2 cell line (Cat #HTB-37) is purchased from the ATCC (Rockville, Md., USA). The organic solvents used in the study are purchased from Sigma Aldrich (St. Louis, Mo., USA). For reference compounds (fenoterol, propranolol and digoxin) and test compounds, 0.4 mM intermediate solutions are prepared by diluting 10 mM or other appropriate concentrations of DMSO stock solutions with DMSO. 2 μM dosing solutions for reference compounds and test compounds are prepared by spiking the appropriate volume of intermediate solution to TB with and without 1 μM Zosuquidar. The final concentration of DMSO is no more than 1% (v/v). Caco-2 cells are grown in MEM supplemented with 2 mM L-glutamine, 10% FBS, 100 U/mL penicillin-G and 100 μg/mL streptomycin. The cells are incubated at 37° C., 5% CO2 and relatively saturated humidity. After reaching 80-90% confluency, the cells are gently detached with 0.05% trypsin-EDTA solution. Cells at passage 30-50 are seeded on the 96-well BD insert system (Cat #359274) at the density of 1×10^5 cells/cm2 and cultured for 21-28 days with medium changed every 4-5 days. TB and dosing solutions were pre-warmed to 37° C. before transport assay. The cell monolayer was washed twice with HBSS containing 10 mM HEPES. For A-B (apical to basolateral) directional transport assay, 75 μL dosing solution is added to the apical well. Fill each basolateral well with 250 μL TB. For B-A (basolateral to apical) directional transport assay, 250 μL of dosing solution is added to the basolateral well after filling each apical well with 75 μL TB. Test compound(s) and digoxin are tested at 2 μM in the presence or absence of 1 μM zosuquidar bidirectionally in duplicate. Atenolol and propranolol are tested at 2 μM in the absence of zosuquidar in A to B direction in duplicate. The plates are incubated for 120 minutes at 37° C. with 5% C02 and saturated humidity. The time zero samples are generated by mixing 50 μL initial dosing solution of test compound or reference compound with 100 μL TB and 250 μL quench solution (acetonitrile (ACN) or other appropriate solvent with internal standard(s), based on the bioanalytical method development). At 120 minutes, 150 μL of solution is collected from each A-B receiver well followed by addition of 250 μL quench solution to get A-B receiver sample. And for other samples (A-B donor, B-A donor and receiver), 50 μL of solution is collected from each corresponding well followed by addition of 250 μL quench solution and 100 μL TB. All samples are vortex-mixed and centrifuged at 3220 g for 20 minutes. Subsequently, supernatant is diluted with ultra pure water for LC-MS/MS analysis. The concentrations of test compound in all samples are determined by LC-MS/MS and expressed as peak area ratio of analyte to internal standard. The concentration of samples is expressed using the peak area ratio of Analyte to Internal Standard (Analyte/IS). The apparent permeability coefficient (Papp) is calculated using the following equation: Papp=VR/(Area*Time)*(CR/C0) wherein VR is the solution volume in the receiver chamber (0.075 mL on the apical side, 0.25 mL on the basolateral side); Area is the surface area for the transport, i.e. 0.0804 cm2 for the area of the monolayer; Time is incubation time, expressed in seconds, 2 h=2×3600 s; C0 is the initial concentration in the donor chamber; CR is the final concentrations in receiver chamber. The efflux ratio is calculated using the following equation: Efflux ratio=[…]) where Papp (A-B) and Papp (B-A) are the Papp values of compound in Apical to Basolateral and Basolateral to Apical directional transport, respectively.

[3] = HSA stimulation buffer, 5 μM Adenosine as agonist, 2.0% HSA, read-out: IC50 (nM) (5 μM Adenosine as agonist, 2.0% HSA)
[4] = normal stimulation buffer, 3 nM NECA as agonist, 0.1% BSA, read-out: IC50 (nM) (3 nM NECA as agonist, 0.1% BSA)

T1 sequence (P29274 whole entry): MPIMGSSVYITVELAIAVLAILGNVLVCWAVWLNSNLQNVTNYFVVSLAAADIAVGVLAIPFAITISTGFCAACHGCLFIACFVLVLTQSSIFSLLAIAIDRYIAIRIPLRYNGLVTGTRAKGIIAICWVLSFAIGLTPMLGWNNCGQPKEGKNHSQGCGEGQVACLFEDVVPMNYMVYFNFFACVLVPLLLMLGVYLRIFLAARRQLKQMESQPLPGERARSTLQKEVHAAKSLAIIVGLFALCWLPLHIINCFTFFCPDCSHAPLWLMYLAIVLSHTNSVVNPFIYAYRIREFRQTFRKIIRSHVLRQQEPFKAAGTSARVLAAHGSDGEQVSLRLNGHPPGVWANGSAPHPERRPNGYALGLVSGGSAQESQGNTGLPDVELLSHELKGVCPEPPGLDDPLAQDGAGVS

In the case of `CN(CCN1CCN(c2cc(OCC[S@+](C)[O-])c(F)cc2F)CC1)c1nc(N)n2nc(-c3ccco3)nc2n1` [Compound 1, (S)—N5-(2-(4-(2,4-difluoro-5-(2-(methylsulfinyl)ethoxy)phenyl)piperazin-1-yl)ethyl)-2-(furan-2-yl)-N5-methyl-[1,2,4]triazolo[1,5-a][1,3,5]triazine-5,7-diamine], the IC50 [1, 3] is reported as 33 nM and the IC50 [1, 4] is reported as 0.4 nM.
`CN(CCN1CCN(c2cc(OCC[S@@+](C)[O-])c(F)cc2F)CC1)c1nc(N)n2nc(-c3ccco3)nc2n1` [Compound 2, (R)—N5-(2-(4-(2,4-difluoro-5-(2-(methylsulfinyl)ethoxy)phenyl)piperazin-1-yl)ethyl)-2-(furan-2-yl)-N5-methyl-[1,2,4]triazolo[1,5-a][1,3,5]triazine-5,7-diamine] gave an IC50 [1, 3] of 28 nM and an IC50 [1, 4] of 0.6 nM.
Work on `CNC(=O)c1cc(N2CCN(CCn3c(=O)n(C)c4c3nc(N)n3nc(-c5ccco5)nc43)CC2)c(F)cc1F` [Compound 3, 5-(4-(2-(5-amino-8-(furan-2-yl)-1-methyl-2-oxo-1H-[1,2,4]triazolo[5,1-i]purin-3(2H)-yl)ethyl)piperazin-1-yl)-2,4-difluoro-N-methylbenzamide] yielded an efflux ratio at 120 min, 2 μM [2] of 53, an IC50 [1, 3] of 176 nM and an IC50 [1, 4] of 0.1 nM.
Work on `CNC(=O)c1cc(N2CCN(CCn3ncc4c3nc(N)n3nc(-c5ccco5)nc43)CC2)c(F)cc1F` [Compound 4, 5-(4-(2-(5-amino-2-(furan-2-yl)-7H-pyrazolo[4,3-e][1,2,4]triazolo[1,5-c]pyrimidin-7-yl)ethyl)piperazin-1-yl)-2,4-difluoro-N-methylbenzamide] yielded an efflux ratio at 120 min, 2 μM [2] of 8, an IC50 [1, 3] of 150 nM and an IC50 [1, 4] of 0.3 nM.
In the case of `CN(CCN1CCN(c2cc(OCCS(C)(=O)=O)c(F)cc2F)CC1)c1nc(N)n2nc(-c3ccco3)nc2n1` [Compound 5, N5-(2-(4-(2,4-difluoro-5-(2-(methylsulfonyl)ethoxy)phenyl)piperazin-1-yl)ethyl)-2-(furan-2-yl)-N5-methyl-[1,2,4]triazolo[1,5-a][1,3,5]triazine-5,7-diamine], the efflux ratio at 120 min, 2 μM [2] is reported as > 340, the IC50 [1, 3] is reported as 41 nM and the IC50 [1, 4] is reported as 0.6 nM.
With `CS(=O)(=O)CCOc1cc(N2CCN(CCNc3nc(N)n4nc(-c5ccco5)nc4n3)CC2)c(F)cc1F` [Compound 6, N5-(2-(4-(2,4-difluoro-5-(2-(methylsulfonyl)ethoxy)phenyl)piperazin-1-yl)ethyl)-2-(furan-2-yl)-[1,2,4]triazolo[1,5-a][1,3,5]triazine-5,7-diamine] the IC50 [1, 3] was 63 nM and the IC50 [1, 4] was 0.9 nM.
With `Cn1c(=O)n(CCN2CCN(c3cc(OCC[S@+](C)[O-])c(F)cc3F)CC2)c2nc(N)n3nc(-c4ccco4)nc3c21` [Compound 7, (S)-5-amino-3-(2-(4-(2,4-difluoro-5-(2-(methylsulfinyl)ethoxy)phenyl)piperazin-1-yl)ethyl)-8-(furan-2-yl)-1-methyl-1H-[1,2,4]triazolo[5,1-i]purin-2-one] the efflux ratio at 120 min, 2 μM [2] was > 500, the IC50 [1, 3] was 64 nM and the IC50 [1, 4] was 0.3 nM.
In the case of `Cn1c(=O)n(CCN2CCN(c3cc(OCC[S@@+](C)[O-])c(F)cc3F)CC2)c2nc(N)n3nc(-c4ccco4)nc3c21` [Compound 8, (R)-5-amino-3-(2-(4-(2,4-difluoro-5-(2-(methylsulfinyl)ethoxy)-phenyl)piperazin-1-yl)ethyl)-8-(furan-2-yl)-1-methyl-1H-[1,2,4]triazolo[5,1-i]purin-2-one], the efflux ratio at 120 min, 2 μM [2] is reported as > 400, the IC50 [1, 3] is reported as 70 nM and the IC50 [1, 4] is reported as 0.3 nM.
In the case of `Cn1c(=O)n(CCN2CCN(c3cc(OCCS(C)(=O)=O)c(F)cc3F)CC2)c2nc(N)n3nc(-c4ccco4)nc3c21` [Compound 9, 5-amino-3-(2-(4-(2,4-difluoro-5-(2-(methylsulfonyl)ethoxy)phenyl)piperazin-1-yl)ethyl)-8-(furan-2-yl)-1-methyl-1H-[1,2,4]triazolo[5,1-i]purin-2(3H)-one], the efflux ratio at 120 min, 2 μM [2] is reported as > 300, the IC50 [1, 3] is reported as 104 nM and the IC50 [1, 4] is reported as 0.5 nM.
In the case of `C[S@+]([O-])CCOc1cc(N2CCN(CCNc3nc(N)n4nc(-c5ccco5)nc4n3)CC2)c(F)cc1F` [Compound 10, (S)—N5-(2-(4-(2,4-difluoro-5-(2-(methylsulfinyl)ethoxy)phenyl)piperazin-1-yl)ethyl)-2-(furan-2-yl)-[1,2,4]triazolo[1,5-a][1,3,5]triazine-5,7-diamine], the efflux ratio at 120 min, 2 μM [2] is reported as > 900, the IC50 [1, 3] is reported as 25 nM and the IC50 [1, 4] is reported as 0.2 nM.
Compound `Nc1nc(NCCN2CCN(c3cc(N4CC[S+]([O-])CC4)c(F)cc3F)CC2)nc2nc(-c3ccco3)nn12` [Compound 15, 4-(5-(4-(2-((7-amino-2-(furan-2-yl)-[1,2,4]triazolo[1,5-a][1,3,5]triazin-5-yl)amino)ethyl)piperazin-1-yl)-2,4-difluorophenyl)thiomorpholine 1-oxide] has an IC50 [1, 3] of 81 nM and an IC50 [1, 4] of 1.7 nM.
Compound `C[S@@+]([O-])c1cc(N2CCN(CCNc3nc(N)n4nc(-c5ccco5)nc4n3)CC2)c(F)cc1F` [Compound 16, (R)—N5-(2-(4-(2,4-difluoro-5-(methylsulfinyl)phenyl)piperazin-1-yl)ethyl)-2-(furan-2-yl)-[1,2,4]triazolo[1,5-a][1,3,5]triazine-5,7-diamine] has an IC50 [1, 3] of 73 nM and an IC50 [1, 4] of 7.4 nM.
Compound `C[S@+]([O-])c1cc(N2CCN(CCNc3nc(N)n4nc(-c5ccco5)nc4n3)CC2)c(F)cc1F` [Compound 17, (S)—N5-(2-(4-(2,4-difluoro-5-(methylsulfinyl)phenyl)piperazin-1-yl)ethyl)-2-(furan-2-yl)-[1,2,4]triazolo[1,5-a][1,3,5]triazine-5,7-diamine] has an IC50 [1, 3] of 201 nM and an IC50 [1, 4] of 1.8 nM.

Reference: patent publication US11427594B2, “Non brain penetrant A2A inhibitors and methods for use in the treatment of cancers” (iTeos Belgium SA, priority 2018, dated 2022)
